Converted amounts (≈) assume the structure as drawn. “Also recorded” adds a separate entry of the source. Read-outs that look alike come from different tables or passages of the source. Values belong to the compound of their own block, whether it stands above or below them.
Assays:
[1] = design: method as in PMID 23515079; conditions: cited from earlier work
[2] = system: human hepatoma-derived HepG2 cells; design: method as in PMID 24720377; conditions: read-out: Cytotox. IC50; cited from earlier work
[3] = system: Dd2; design: method as in PMID 24720377; conditions: strain Dd2; cited from earlier work
[4] = system: Tm90-C2B; design: method as in PMID 24720377; conditions: strain Tm90-C2B; cited from earlier work
[5] = system: D6; design: method as in PMID 24720377; conditions: strain D6; cited from earlier work
[6] = Cytotoxicity on BJ fibroblasts, CTG reagent; format: cell-based; conditions: human BJ fibroblasts, 72 h exposure at 37 °C, read-out: Cytotox. IC50
Experimental: (§1) The ELQs 14–17 were tested against the chloroquine-sensitive Plasmodium falciparum strain 3D7 (MRA-102), as provided by the MR4 Unit of the American Type Culture Collection (ATCC, Manassas, VA, USA). Details of the assay have been previously published. Cytotoxicity IC50 values for 14–17 were obtained on human BJ fibroblasts as previously described. [table]

[7] = system: chloroquine-sensitive Plasmodium falciparum strain 3D7 (MRA-102); test: In vitro screening against chloroquine-sensitive P. falciparum 3D7; format: cell-based
Experimental: as §1

[8] = Kinetic (report: thermodynamic) solubility in pH 7.4 phosphate buffer, quantitative LC-MS; format: physicochemical; conditions: 23 °C
[9] = Kinetic (report: thermodynamic) solubility in pH 7.4 phosphate buffer, quantitative LC-MS; format: physicochemical; conditions: phosphate buffer pH 7.4, room temperature, LC-MS (supplementary report); for solubility at 20 h: phosphate buffer, 23 °C, pH 7.4, aqueous buffer, thermodynamic from solid
Experimental: Title: Thermodynamic Solubility Study in Phosphate Buffer 7.4 Date: 02/24/2023 […]
The goal of this study is to determine the thermodynamic solubility values for compounds: JS -13, JS-14, JS-17 and JS-18 in phosphate buffer pH 7.4.
Compound ID Solubility (µM) Solubility (mg/mL)
The scope of the thermodynamic (equilibrium) solubility experiment is to investigate the solubility of the compounds in a saturated solution. For this method, phosphate buffer is added to solid compound and mixed at room temperature for […] to ensure that equilibrium is achieved. To determine concentrations to generate calibration curves and for the equilibrated compounds (in buffer) a general LC-MS method was developed. The method includes a high-resolution separation by a UPLC unit as well as a high sensitivity ion detection by a mass spectrometer equipped with an electrospray ionization probe. For calibration curves the compounds were dissolved in DMSO and diluted by ACN. The supernatant of the equilibrated samples, after a 2-step centrifugation process, were also diluted by ACN to ensure full solubilization.
(1 picture or pasted object on this page, not shown here)
The experiment was carried out as recommended by AstraZeneca’s Mechanistic Biology & Profiling, Discovery Sciences, R&D group (AstraZeneca, Gothenburg, Sweden). The method was published in ASSAY and Drug Development Technologies; Title: “A Fully Integrated Assay Panel for Early Drug Metabolism and […]
• The experiment was performed on December 3, 2022
A Shimadzu LC-40D XR HPLC system equipped with a PDA detector (Model: SPD-M40) and connected to an LCMS-2020 mass spectrometer was utilized for determining sample concentrations. For HPLC separation an XBridge C18 column (4.6x50 mm, […] particle size) from Waters Inc. was used, the column oven temperature was set at 40°C. To determine the concentration of the compounds, eluent A containing 0.1% trifluoroacetic acid (TFA) in water, eluent B containing 0.1% TFA in acetonitrile and a linear gradient (5-100% B in 3 min) were utilized. Molecular ions (MH+) were generated by combined ESI and APCI ionization methods and collected by a DUIS detector. The mass spectrometer was calibrated by standards provided by Shimadz u Scientific Instruments. Single ion monitoring (SIM) methods were used to maximize sensitivity for each compound as described in Table […]
Compound ID Primary Ion Secondary Ion Note
+ + 414.15+ is identical to MH+ generated
• To establish calibration curves, the weighted compounds were dissolved in 100 µL of dimethyl sulfoxide (DMSO) and diluted by 400 µL of acetonitrile (ACN). The stock solution was further diluted by ACN (5x, in 5 steps). For all LC-MS experiments 5 µL sample was injected. To perform equilibration studies, 500 µL phosphate buffer was added to each weighted compound. The results slurries were stirred at room temperature for 20 hr. After equilibration, the samples were transferred to […]
Eppendorf tubes and centrifuged for 30 min at 2,000 x g. 200 µL of the supernatant of each sample was transferred and centrifuged again f or 30 min at 2,000 x g. Dilution and LC-MS analyses were performed as described for the calibration curves.
ACN, DMSO and HPLC quality water were purchased from MilliporeSigma Inc.
TFA (99.9% purity) was from Chem-Impex International Inc.
• The data was archived in the MD&S Laboratory electronic notebook (ChemCart, DeltaSoft Inc.) on […]
• Data processing software used: Microsoft Office 365 – Excel.
3.1 Structures, molecular weights
Compound Chemical Exact SMILE
[C@]4([H])OC3)C=C2)=C(C)NC5=CC=C(Cl)C=C51
[H])OC3)C=C2)=C(C)NC5=CC=C(Cl)C=C51
4([H])OC3)C=C2)=C(C)NC5=CC=C(Cl)C=C51
C@]4([H])OC3)C=C2)=C(C)NC5=CC=C(Cl)C=C51
Table 2. Compound IDs, chemical formulas, exact (monoisotopic) molecular weights, SMILE notations

[10] = chloroquine-sensitive P. falciparum strain 3D7, read-out: EC50
[11] = P. falciparum strain 3D7, read-out: EC50 (antimalarial potency)

SMILES: COc1cc2[nH]c(C)c(-c3ccc(Oc4ccc(OC(F)(F)F)cc4)cc3)c(=O)c2cc1Cl [C00001]
- Kinetic Solubility [1]: 16 µM
- IC50 [2]: > 10000 nM
- EC50 [3]: 2.5 nM
- EC50 [4]: 1.4 nM
- EC50 [5]: 2.2 nM

SMILES: Cc1[nH]c2ccc(Cl)cc2c(=O)c1-c1ccc(Oc2ccc(OC(F)(F)F)cc2)cc1 [C00002]
- IC50 [2]: > 10000 nM
- EC50 [3]: 5.6 nM
- EC50 [4]: 2.3 nM
- EC50 [5]: 3.2 nM

SMILES: COCCOC1COC2C(Oc3ccc(-c4c(C)[nH]c5ccc(Cl)cc5c4=O)cc3)COC12 (centres unmarked) [C00006]
- IC50 at 72 h [6]: > 100000 nM
- solubility thermodynamic at 20 h [8]: 127 µM (≈ 59.9 µg/mL)
- EC50 [7, 10]: > 1000 nM

SMILES: CC(=O)O[C@H]1CO[C@H]2[C@@H]1OC[C@@H]2Oc1ccc(-c2c(C)[nH]c3ccc(Cl)cc3c2=O)cc1 [Compound 14, (3S,3aR,6S,6aR)-6-(4-(6-Chloro-2-methyl-4-oxo-1,4-dihydroquinolin-3-yl)phenoxy)hexahydrofuro[3,2-b]furan-3-yl Acetate]
- melting point: 298 to 299 °C
- Solubility (M) ([9]; listed as JS-13): Unstable in buffer; also recorded: hydrolyzed under equilibrating conditions
- EC50 [7, 11]: > 1000 nM

SMILES: COCCO[C@H]1CO[C@H]2[C@@H]1OC[C@@H]2Oc1ccc(-c2c(C)[nH]c3ccc(Cl)cc3c2=O)cc1 [Compound 17, 6-Chloro-3-(4-(((3S,3aR,6S,6aR)-6-(2-methoxyethoxy)hexahydrofuro[3,2-b]furan-3-yl)oxy)phenyl)-2-methylquinolin-4(1H)-one]
- solubility at 20 h ([9]; read-out: Solubility): 127 µM
- solubility at 20 h ([9]; read-out: Solubility (mg/mL)): 0.06 mg/mL
- EC50 [7, 11]: > 1000 nM

More lines, main results first:

- EC50 [7, 10]: > 1000 nM
SMILES: CC(=O)OC1COC2C(Oc3ccc(-c4c(C)[nH]c5ccc(Cl)cc5c4=O)cc3)COC12 (centres unmarked) [C00003]
- IC50 at 72 h [6]: > 100000 nM

- solubility thermodynamic at 20 h [8]: 95 µM (≈ 39.3 µg/mL)
- EC50 [7, 10]: > 1000 nM
SMILES: Cc1[nH]c2ccc(Cl)cc2c(=O)c1-c1ccc(OC2COC3C(O)COC23)cc1 (centres unmarked) [C00004]
- IC50 at 72 h [6]: > 100000 nM

- solubility thermodynamic at 20 h [8]: 22 µM (≈ 9.41 µg/mL)
- EC50 [7, 10]: > 1000 nM
SMILES: COC1COC2C(Oc3ccc(-c4c(C)[nH]c5ccc(Cl)cc5c4=O)cc3)COC12 (centres unmarked) [C00005]
- IC50 at 72 h [6]: > 100000 nM

- solubility at 20 h ([9]; read-out: Solubility): 95 µM
- solubility at 20 h ([9]; read-out: Solubility (mg/mL)): 0.039 mg/mL
- EC50 [7, 11]: > 1000 nM
SMILES: Cc1[nH]c2ccc(Cl)cc2c(=O)c1-c1ccc(O[C@H]2CO[C@H]3[C@@H]2OC[C@@H]3O)cc1 [Compound 15, 6-Chloro-3-(4-(((3S,3aR,6S,6aR)-6-hydroxyhexahydrofuro[3,2-b]furan-3-yl)oxy)phenyl)-2-methylquinolin-4(1H)-one]

- solubility at 20 h ([9]; read-out: Solubility): 22 µM
- solubility at 20 h ([9]; read-out: Solubility (mg/mL)): 0.009 mg/mL
- EC50 [7, 11]: > 1000 nM
SMILES: CO[C@H]1CO[C@H]2[C@@H]1OC[C@@H]2Oc1ccc(-c2c(C)[nH]c3ccc(Cl)cc3c2=O)cc1 [Compound 16, 6-Chloro-3-(4-(((3S,3aR,6S,6aR)-6-methoxyhexahydrofuro[3,2-b]furan-3-yl)oxy)phenyl)-2-methylquinolin-4(1H)-one]

From publication PMC11314205, “Incorporation of an Isohexide Subunit into the Endochin-like Quinolone Scaffold” (Molecules, 2024)
